Laboratory results reported in patent publication US6060608A, “Analogs of CC-1065 and the duocarmycins” (The Scripps Research Institute, priority 1999, dated 2000).

Assays:
[1] = test system: w794 DNA, 5'-AATTA high affinity site; assay: Relative rate of DNA alkylation at the w794 5'-AATTA high affinity site; type: biochemical, SV40; settings: 25° C.
Method: Rate of DNA Alkylation. The relative rates of DNA alkylation for the natural enantiommers of CCBI-TMI (35) and CCBI-indole2 (37) versus those of the corresponding CBI and MCBI agents were measured at the single high affinity site in w794, 5'-AATTA. The relative rates earlier studies of DNA alkylation for MCBI-TMI, CBI-TMI, and duocarmycin SA were determined to be quite similar at 4° C., 1.8:1.0:0.9, respectively. […] In prior studies, we have highlighted similar observations with agents that span a much larger range of relative reactivities.
The DNA alkylation selectivity and efficiency of the natural enantiomers of 304-307 were compared with that of 1 in w794 DNA. […] These trends in the overall efficiency of DNA alkylation parallel the relative trends in cytotoxic potency.
(§1) DNA Alkylation Relative Rate of (+)-CCBI-TMI (35), (+)-CBI-TMI, and (+)-MCBI-TMI. Following the procedure detailed above, Eppendorf tubes containing 5' end-labeled w794 DNA (9 μL) in TE buffer (pH 7.5) were treated with (+)-CCBI-TMI (35), (+)-CBI-TMI, or (+)-MCBI-TMI (1 μL, 10^-6 M in DMSO). The solutions were mixed and incubated at 25° C. for 2, 4, 6, 9, 12, 15, and 24 h, respectively. Subsequent isolation of the alkylated DNA by EtOH precipitation, resuspension in TE buffer (10 μL, pH 7.5), thermolysis (30 min, 100° C.), PAGE, and autoradiography were conducted as detailed above. Relative rates for alkylation at the w794 high-affinity 5'-AATTA site were derived from the slopes of the plots of percent integrated optical density (IOD) of the high-affinity alkylation cleavage bands versus time.
as §1, with “(+)-CCBI-indole2 (37), (+)-CBI-indole2,” for “(+)-CCBI-TMI (35), (+)-CBI-TMI,”, “(+)-MCBI-indole2.” for “(+)-MCBI-TMI.”, “(+)-CCBI-indole2 (37), (+)-CBI-indole2, and (+)-MCBI-indole2” for “(+)-CCBI-TMI (35), (+)-CBI-TMI, or (+)-MCBI-TMI”

w794 duplex DNA = assay: DNA alkylation selectivity and efficiency within w794 DNA, thermally-induced strand cleavage and PAGE; type: biochemical, SV40; settings: for DNA alkylation less efficient than 1 or 305: natural enantiomers, 25° C., 24 h
Source text: DNA Alkylation Selectivity and Efficiency. The DNA alkylation properties of the agents were examined within w794 duplex DNA, a 144 base-pair segment of duplex DNA for which comparative results are available for related agents. The alkylation site identification and the assessment of the relative selectivity among the available sites were obtained by thermally-induced strand cleavage of the singly 5' end-labeled duplex DNA after exposure to the agents. Following treatment of the end-labeled duplex DNA with a range of agent concentrations, the unbound agent was removed by EtOH precipitation of the DNA. Redissolution of the DNA in aqueous buffer, thermolysis (100° C., 30 min) to induce strand cleavage at the sites of DNA alkylation, denaturing high resolution polyacrylamide gel electrophoresis (PAGE) adjacent to Sanger dideoxynucleotide sequencing standards, and autoradiography led to identification of the DNA cleavage and alkylation sites. The DNA alkylation reaction selectivities observed under the incubation conditions for the agents detailed herein have proven identical to the alkylation selectivities observed with shorter or extended reaction periods or when the reactions were conducted at different temperatures (37 or 4° C., 0.5-7 d). As discussed below, the rates and efficiencies but not final relative efficiencies of DNA alkylation were altered by changing the reaction temperatures.
DNA Alkylation Properties. […] The DNA alkylation reaction was examined within w794 DNA for which comparative results are available for past agents. The alkylation site identification was obtained by thermal strand cleavage of the singly 5' end-labeled duplex DNA after exposure to the agents. Following treatment of the labeled DNA with a range of agent concentrations, the unbound agent was removed by EtOH precipitation of the DNA. Redissolution of the DNA in aqueous buffer, thermolysis at 100° C. (30 min) to induce depurination and strand cleavage at the adenine N3 or guanine N3 minor groove alkylation sites, denaturing high resolution PAGE adjacent to Sanger sequencing standards and autoradiography provided the DNA cleavage and alkylation sites.
DNA Alkylation Studies: selectivity and Efficiency. General procedures, the preparation of singly ^32 P 5' end-labeled double stranded DNA, the agent binding studies, gel electrophoresis, and autoradiography were conducted according to standard procedures. Eppendorf tubes containing the 5' end-labeled DNA (9 μL) in TE buffer (10 mM Tris, 1 mM EDTA, pH 7.5) were treated with the agent in DMSO (1 μL at the specified concentration). The solution was mixed by vortexing and brief centrifugation and subsequently incubated at 4 or 25° C. for 24 h (natural enantiomers) and 25 or 37° C. (unnatural enantiomers) for 72 h. The covalently modified DNA was separated from unbound agent by EtOH precipitation and resuspended in TE buffer (10 μL). The solution of DNA in an Eppendorf tube sealed with parafilm was warmed at 100° C. for 30 min to induce cleavage at the alkylation sites, allowed to cool to 25° C. and centrifuged. Formamide dye (0.03% xylene cyanol FF, 0.03% bromophenol blue, 8.7% Na2 EDTA 250 mM) was added (5 μL) to the supernatant. Prior to electrophoresis, the sample was denatured by warming at 100° C. for 5 min, placed in an icebath, and centrifuged, and the supernatant (3 μL) was loaded directly onto the gel. Sanger dideoxynucleotide sequencing reactions were run as standards adjacent to the reaction samples. Polyacrylamide gel electrophoresis (PAGE) was run on an 8% sequencing gel under denaturing conditions (8 M urea) in TBE buffer (100 mM Tris, 100 mM boric acid, 0.2 mM Na2 EDTA) followed by autoradiography.
DNA Alkylation of w794 DNA. Eppendorf tubes containing the 5'-end labeled DNA (9 μL) in TE buffer (10 mM Tris, 1 mM EDTA, pH 7.2) were treated with the agent in DMSO (1 μL at the specified concentration). […]

[2] = In vitro cytotoxic activity (cell line not given); type: cell-based; settings: for less potent than ent-(-)-1: unnatural enantiomers
[3] = Aqueous solvolysis reactivity followed by UV; type: physicochemical
Method: The reactivity of 217-219 was assessed by following the solvolysis spectrophotometrically by UV at both pH 3 (50% CH3 OH-buffer, buffer=4:1:20 (v/v/v) 0.1 M citric acid, 0.2 M Na2 HPO4, H2 O) and pH 7 (1:1 H2 O--CH3 OH) measuring both the disappearance of the long-wavelength absorption band of the F2 CBI chromophore and the appearance of a short-wavelength absorption band attributable to the ring open products (FIG. 31).
Aqueous Solvolysis Reactivity. pH 3: N-BOC-CCBI (25, 100 μg) was dissolved in CH3 OH (1.5 mL) and mixed with pH 3 aqueous buffer (1.5 mL). The buffer contained 4:1:20 (v:v:v) 0.1 M citric acid, 0.2 M Na2 HPO4 and H2 O, respectively. The solvolysis solution was sealed and kept at 25° C. protected from light. The UV spectrum was measured at regular intervals every 2 h during the first day, every 12 h for another week, and every 24 h for an additional week. The decrease in the long-wavelength absorption at 322 nm and the increase in the short-wavelength absorption at 268 nm were monitored, FIG. 1.
pH 2: Samples of 25 (100 μg) and 26 (50 μg) were dissolved in CH3 OH (1.5 mL) and the solutions were mixed with aqueous buffer (pH 2.05, 1.5 mL). The buffer contained 4:1:20 (v:v:v) 1.0 M citric acid, 0.2 M Na2 HPO4, and H2 O, respectively. Immediately after mixing, the UV spectra of the solutions were measured against a reference solution containing CH3 OH (1.5 mL) and the aqueous buffer (1.5 mL) and these readings were used for the initial absorbance values. The solutions were stoppered, protected from the light, and allowed to stand at 25° C. UV spectra were recorded at regular intervals until constant values were obtained for the long and short wavelength absorbances. The solvolysis rate constants were determined from the slope of the lines obtained from linear least squares treatment of plots of ln[(Af -Ai)/(Af -A)] versus time using the short wavelength measurements for 25 and long wavelength measurements for 26).

L1210 = assay: In vitro cytotoxic activity, L1210; settings: N-BOC derivatives

COc1ccc2c(c1)C13CC1CN(C(=O)c1cc4cc(NC(=O)c5cc6ccccc6[nH]5)ccc4[nH]1)C3=CC2=O (single isomer, unassigned) [MCBI-indole2]
relative rate of DNA alkylation, indole2 series [1]: 1.4 ×

COC(=O)c1cc2c([nH]1)C(=O)C=C1N(C(=O)c3cc4ccc(OC)cc4[nH]3)CC3CC123 (single isomer, unassigned) [compound 306]
DNA alkylation less efficient than 1 or 305 (w794 duplex DNA): 5-10 × | cytotoxic activity relative to duocarmycin SA or 304 (words) [2]: intermediate activity | properties relative to duocarmycin SA or 304 [2]: properties more analogous to 304 | less potent than ent-(-)-1 [2]: 13-18 ×

COC(=O)c1cc2c([nH]1)C(=O)C=C1N(C(=O)c3cc4cccc(OC)c4[nH]3)CC3CC123 (single isomer, unassigned) [compound 307]
DNA alkylation less efficient than 1 or 305 (w794 duplex DNA): 5-10 × | cytotoxic activity relative to duocarmycin SA or 304 (words) [2]: equipotent with (+)-304 | properties relative to duocarmycin SA or 304 [2]: properties more analogous to 304 | less potent than ent-(-)-1 [2]: 13-18 ×

COC(=O)c1cc2c([nH]1)C(=O)C=C1N(C(=O)c3cc4ccccc4[nH]3)CC3CC123 (single isomer, unassigned) [compound 304]
DNA alkylation less efficient than 1 or 305 (w794 duplex DNA): 20 × | reduction in cytotoxic potency relative to duocarmycin SA ([2]; natural enantiomers): 6.5 -fold | less potent than ent-(-)-1 [2]: 13-18 ×

COC(=O)c1cc2c([nH]1)C(=O)C=C1N(C(=O)c3cc4cc(OC)ccc4[nH]3)CC3CC123 (single isomer, unassigned) [ent-(-)-305]
cytotoxic activity relative to duocarmycin SA or 304 (words) [2]: more closely approached the full activity of ent-(-)-1

COc1cc2cc(C(=O)N3CC4CC45C3=CC(=O)c3ccc(C#N)cc35)[nH]c2c(OC)c1OC (stereo not drawn) [compound 35]
DNA alkylation more efficient than MCBI or CBI based agents (w794 duplex DNA): 1.5-2 × | DNA alkylation sequence selectivity (w794 duplex DNA): strong preference but not absolute requirement for the fourth 5' base to be A or T versus G or C | relative rate of DNA alkylation, TMI series ([1]; 10^-6 M): 2.5 ×

CC(C)(C)OC(=O)N1CC2CC23C1=CC(=O)c1ccccc13 (stereo not drawn) [N-BOC-CBI, reference compound]
concentration at which both enantiomers alkylate DNA (w794 duplex DNA; FIG. 24, 37° C., 48 h): 10^-2 M | solvolysis stability/reactivity [3]: stable | half-life ([3]; 50% ch3oh-buffer, pH 3): 133 h | solvolysis rate constant k ([3]; pH 3, 50% CH3OH-buffer): 1.45e-06 s⁻¹ | relative cytotoxic potency of natural versus unnatural enantiomers (L1210): 11 ×

N#Cc1ccc2c(c1)C13CC1CN(C(=O)c1cc4cc(NC(=O)c5cc6ccccc6[nH]5)ccc4[nH]1)C3=CC2=O (single isomer, unassigned) [compound 37]
DNA alkylation more efficient than MCBI or CBI based agents (w794 duplex DNA): 1.5-2 × | DNA alkylation sequence selectivity (w794 duplex DNA): stronger preference for the fourth base to be A or T but that preference extended to include a fifth 5' A or T base | relative rate of DNA alkylation, indole2 series [1]: 2.5 ×
